From patent US20160287589A1, “SUBSTITUTED-IMIDAZOPYRIDAZINES” (BAYER PHARMA AKTIENGESELLSCHAFT, priority 2013, published 2016)
pIC50: −log10 of the molar value.

Columns and labels:
MKNK1 [1] = target: T1, MKNK1 (Homo sapiens, UniProt Q9BUB5, T385D); experiment: MKNK1 kinase high ATP assay (TR-FRET-based); assay type: biochemical; details: 2 mM ATP, 15 min preincubation
T1 construct: GST (N); purchased Carna Biosciences 02-145; host or cells: insect cells (baculovirus expression system)
Method in brief: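 GST-tagged full-length human MKNK1 (aa 1-424, T344D) from insect cells, preincubated with compound 15 min at 22 °C. Reaction 30 min at 22 °C with 2 mM ATP and 0.06 μM biotinylated peptide in HEPES pH 7.5, Mg2+, DTT. Phosphopeptide detected by TR-FRET (665/622 ratio) with anti-pS6 (pSer236) antibody; normalised to no-inhibitor and no-enzyme controls.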

MKNK1 [2] = target: T1, MKNK1; experiment: MKNK1 kinase assay (MKNK1 TR-FRET assay); assay type: biochemical; details: 10 μM ATP, 15 min preincubation

T1 sequence (Q9BUB5 1-424 isoform Q9BUB5-2 T344D): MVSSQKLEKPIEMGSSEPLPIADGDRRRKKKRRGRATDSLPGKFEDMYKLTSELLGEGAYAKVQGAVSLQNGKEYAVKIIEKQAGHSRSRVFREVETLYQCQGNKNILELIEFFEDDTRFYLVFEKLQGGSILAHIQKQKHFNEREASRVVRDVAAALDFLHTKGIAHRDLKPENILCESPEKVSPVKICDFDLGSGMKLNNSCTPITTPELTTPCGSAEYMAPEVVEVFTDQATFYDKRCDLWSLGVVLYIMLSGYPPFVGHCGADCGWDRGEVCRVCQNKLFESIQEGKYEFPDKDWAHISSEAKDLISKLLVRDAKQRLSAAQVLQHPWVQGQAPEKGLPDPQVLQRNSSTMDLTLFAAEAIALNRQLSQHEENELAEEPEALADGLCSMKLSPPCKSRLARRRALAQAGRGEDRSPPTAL

Row | pIC50 (MKNK1 [1]; Table 2c) | pIC50 (MKNK1 [2]; Table 1c) | pIC50 (MKNK1 [1]; Table 2a) | pIC50 (MKNK1 [2]; Table 1a) | Structure (SMILES) | further results
1 | – | – | – | – | CC(=O)N1CCC[C@H]1CCOc1ccc2ncc(-c3cc4cnccc4o3)n2n1 [IV-1, 1-[(2S)-2-(2-{[3-(Furo[3,2-c]pyridin-2-yl)imidazo[1,2-b]pyridazin-6-yl]oxy}ethyl)pyrrolidin-1-yl]ethanone] | pIC50 (MKNK1 [1]; Table 2d): 7.92; pIC50 (MKNK1 [2]; Table 1d): 8.30
2 | 7.62 | 8.01 | – | – | C[C@H]1CN(c2nccc3oc(-c4cnc5ccc(OCC(F)(F)F)nn45)cc23)CCN1 [III-145, 3-{4-[(3S)-3-methylpiperazin-1-yl]furo[3,2-c]pyridin-2-yl}-6-(2,2,2-trifluoroethox-y)imidazo[1,2-b]pyridazine] | –
3 | 7.48 | 7.92 | – | – | C[C@H](N)COc1ccc2ncc(-c3cc4c(N5CCC(N(C)C)CC5)nccc4o3)n2n1 [III-21, 1-[2-(6-{[(2S)-2-Aminopropyl]oxy}imidazo[1,2-b]pyridazin-3-yl)furo[3,2-c]pyridin-4-yl]-N,N-dimethylpiperidin-4-amine] | –
4 | – | – | 7.96 | 8.29 | CC(C)(C)CC(=O)N1CCOC(COc2ccc3ncc(-c4cc5ccccc5o4)n3n2)C1 (stereo not drawn) [Example I-14, 1-[2-({[3-(1-Benzofuran-2-yl)imidazo[1,2-b]pyridazin-6-yl]oxy}methyl)-morpholin-4-yl]-3,3-dimethylbutan-1-one] | –
5 | 8.52 | 9.30 | – | – | COC[C@H]1CCCN1c1nccc2oc(-c3cnc4ccc(O[C@H](C)CN)nn34)cc12 [III-31, (2R)-2-[(3-{4-[(2R)-2-(Methoxymethyl)pyrrolidin-1-yl]furo[3,2-c]pyridin-2-yl}imidazo[1,2-b]pyridazin-6-yl)oxy]propan-1-amine] | –
6 | 7.69 | 7.97 | – | – | C[C@H](N)COc1ccc2ncc(-c3cc4c(N5CCCCC5)nccc4o3)n2n1 [III-9, (2S)-1-({3-[4-(Piperidin-1-yl)furo[3,2-c]pyridin-2-yl]imidazo[1,2-b]pyridazin-6-yl}oxy)propan-2-amine] | –
7 | – | – | 8.27 | 8.66 | CC(C)CC(=O)N1CCC[C@H]1CCOc1ccc2ncc(-c3cc4ccccc4o3)n2n1 [Example I-60, 1-[(2S)-2-(2-{[3-(1-Benzofuran-2-yl)imidazo[1,2-b]-pyridazin-6-yl]oxy}ethyl)pyrrolidin-1-yl]-3-methylbutan-1-one] | –
8 | 8.15 | 8.13 | – | – | C[C@@H]1CN(c2nccc3oc(-c4cnc5ccc(OC[C@@H]6CCC(=O)N6)nn45)cc23)CCO1 [III-125, (5S)-5-{[(3-{4-[(2R)-2-methylmorpholin-4-yl]furo[3,2-c]pyridin-2-yl}imidazo[1,2-b]pyridazin-6-yl)oxy]methyl}pyrrolidin-2-one] | –
9 | – | – | – | – | C[C@@H]1COCCN1c1cccc2oc(-c3cnc4ccc(OC[C@H]5CCC(=O)N5)nn34)cc12 [II-49, (5R)-5-{[(3-{4-[(3R)-3-methylmorpholin-4-yl]-1-benzofuran-2-yl}imidazo[1,2-b]pyridazin-6-yl)oxy]methyl}pyrrolidin-2-one] | pIC50 (MKNK1 [1]; Table 2b): 7.92; pIC50 (MKNK1 [2]; Table 1b): 8.28
10 | – | – | – | – | C[C@H]1CN(c2cccc3oc(-c4cnc5ccc(OC[C@H]6CCC(=O)N6)nn45)cc23)CCO1 [II-27, (5R)-5-{[(3-{4-[(2S)-2-methylmorpholin-4-yl]-1-benzofuran-2-yl}imidazo[1,2-b]pyridazin-6-yl)oxy]methyl}pyrrolidin-2-one] | pIC50 (MKNK1 [1]; Table 2b): 8.24; pIC50 (MKNK1 [2]; Table 1b): 8.66
11 | 8.74 | 8.74 | – | – | C[C@@H](N)COc1ccc2ncc(-c3cc4c(N5CCC(CO)CC5)nccc4o3)n2n1 [III-2, {1-[2-(6-{[(2R)-2-Aminopropyl]oxy}imidazo[1,2-b]pyridazin-3-yl)furo[3,2-c]pyridin-4-yl]piperidin-4-yl}methanol] | –
12 | 8.11 | 8.43 | – | – | CN(C)C1CCN(c2nccc3oc(-c4cnc5ccc(OCCCS(C)(=O)=O)nn45)cc23)CC1 [III-55, N,N-Dimethyl-1-(2-{6-[3-(methylsulfonyl)propoxy]imidazo[1,2-b]pyridazin-3-yl}furo[3,2-c]pyridin-4-yl)piperidin-4-amine] | –
13 | 7.88 | 8.57 | – | – | COc1ccc2ncc(-c3cc4c(N5CCN[C@@H](C)C5)nccc4o3)n2n1 [III-133, 6-methoxy-3-{4-[(3S)-3-methylpiperazin-1-yl]furo[3,2-c]pyridin-2-yl}imidazo[1,2-b]pyridazine] | –
14 | – | – | – | – | CC1(C)CN(c2cccc3oc(-c4cnc5ccc(OCCCS(C)(=O)=O)nn45)cc23)CCN1 [II-55, 3-[4-(3,3-dimethylpiperazin-1-yl)-1-benzofuran-2-yl]-6-[3-(methylsulfonyl)propoxy]im-idazo[l,2-b]pyridazine] | pIC50 (MKNK1 [1]; Table 2b): 8.85; pIC50 (MKNK1 [2]; Table 1b): 8.46
15 | – | – | 7.11 | 7.26 | NC(=O)C(Oc1ccc2ncc(-c3cc4ccccc4o3)n2n1)c1cccnc1 (stereo not drawn) [Example I-39, 2-{[3-(1-Benzofuran-2-yl)imidazo[1,2-b]pyridazin-6-yl]oxy}-2-(pyridin-3-yl)acetamide] | –
16 | – | – | 8.62 | 8.96 | O=C(c1ccco1)N1CCC[C@H]1CCOc1ccc2ncc(-c3cc4ccccc4o3)n2n1 [Example I-49, [(2S)-2-(2-{[3-(1-Benzofuran-2-yl)imidazo[1,2-b]-pyridazin-6-yl]oxy}ethyl)pyrrolidin-1-yl](furan-2-yl)methanone] | –
17 | – | – | – | – | FC(F)(F)COc1ccc2ncc(-c3cc4c(N5CCNCC5)cccc4o3)n2n1 [II-56, 3-[4-(piperazin-1-yl)-1-benzofuran-2-yl]-6-(2,2,2-trifluoroethoxy)im-idazo[1,2-b]pyridazine] | pIC50 (MKNK1 [1]; Table 2b): 8.51; pIC50 (MKNK1 [2]; Table 1b): 8.27
18 | – | – | 7.86 | 8.34 | CC(C)(C)CC(=O)NCCOc1ccc2ncc(-c3cc4ccccc4o3)n2n1 [Example I-17, N-(2-{[3-(1-Benzofuran-2-yl)imidazo[1,2-b]pyridazin-6-yl]oxy}ethyl)-3,3-dimethylbutanamide] | –
19 | – | – | 8.74 | 8.89 | O=C(c1cnoc1)N1CCC[C@H]1CCOc1ccc2ncc(-c3cc4ccccc4o3)n2n1 [Example I-45, [(2S)-2-(2-{[3-(1-Benzofuran-2-yl)imidazo[1,2-b]-pyridazin-6-yl]oxy}ethyl)pyrrolidin-1-yl](1,2-oxazol-4-yl)methanone] | –
20 | 7.98 | 8.30 | – | – | C[C@H](CN)Oc1ccc2ncc(-c3cc4c(N5CCOCC5)nccc4o3)n2n1 [III-30, (2R)-2-({3-[4-(Morpholin-4-yl)furo[3,2-c]pyridin-2-yl]imidazo[1,2-b]pyridazin-6-yl}oxy)propan-1-amine] | –
21 | – | – | – | – | CC(C)(C)COc1nccc2oc(-c3cnc4ccc(OC[C@H]5CCC(=O)N5)nn34)cc12 [IV-5, (5R)-5-[({3-[4-(2,2-Dimethylpropoxy)furo[3,2-c]pyridin-2-yl]imidazo[1,2-b]-pyridazin-6-yl}oxy)methyl]pyrrolidin-2-one] | pIC50 (MKNK1 [1]; Table 2d): 8.40; pIC50 (MKNK1 [2]; Table 1d): 8.70
22 | 7.89 | 7.52 | – | – | CC1(C)CN(c2nccc3oc(-c4cnc5ccc(OCCCS(C)(=O)=O)nn45)cc23)CCO1 [III-135, 3-[4-(2,2-dimethylmorpholin-4-yl)furo[3,2-c]pyridin-2-yl]-6-[3-(methylsulfonyl)propoxy] imidazo[1,2-b]pyridazine] | –
23 | – | – | 7.35 | 7.79 | CC(=O)NC(COc1ccc2ncc(-c3cc4ccccc4o3)n2n1)c1cccnc1 (stereo not drawn) [Example I-34, N-[2-{[3-(1-Benzofuran-2-yl)imidazo[1,2-b]pyridazin-6-yl]oxy}-1-(pyridin-3-yl)ethyl]acetamide] | –
24 | 7.63 | 7.98 | – | – | CN(C)[C@H]1CCN(c2nccc3oc(-c4cnc5ccc(OCCCS(C)(=O)=O)nn45)cc23)C1 [III-114, (3S)-N,N-dimethyl-1-(2-{6-[3-(methylsulfonyl)propoxy]imidazo[1,2-b]pyridazin-3-yl}furo[3,2-c]pyridin-4-yl)pyrrolidin-3-amine] | –
25 | 7.11 | 7.51 | – | – | C[C@H](N)COc1ccc2ncc(-c3cc4c(N5CCN(C(=O)OC(C)(C)C)CC5)nccc4o3)n2n1 [III-15, tert-Butyl 4-[2-(6-{[(2S)-2-aminopropyl]oxy}imidazo[1,2-b]pyridazin-3-yl)furo[3,2-c]pyridin-4-yl]piperazine-1-carboxylate] | –
26 | – | – | – | – | CCN(CCOC)c1cccc2oc(-c3cnc4ccc(OC[C@H]5CCC(=O)N5)nn34)cc12 [II-17, (5R)-5-{[(3-{4-[Ethyl(2-methoxyethyl)amino]-1-benzofuran-2-yl}imidazo[1,2-b]-pyridazin-6-yl)oxy]methyl}pyrrolidin-2-one] | pIC50 (MKNK1 [1]; Table 2b): 9.30; pIC50 (MKNK1 [2]; Table 1b): 9.22
27 | 8.14 | 8.68 | – | – | CN(CCCO)c1nccc2oc(-c3cnc4ccc(O[C@H]5C[C@H](N)C5)nn34)cc12 [III-105, 3-[(2-{6-[(trans-3-Aminocyclobutyl)oxy]imidazo[1,2-b]pyridazin-3-yl}furo-[3,2-c]pyridin-4-yl)(methyl)amino]propan-1-ol] | –
28 | – | – | 7.69 | 8.18 | O=C(CO)NCCOc1ccc2ncc(-c3cc4ccccc4o3)n2n1 [Example I-67, N-(2-{[3-(1-Benzofuran-2-yl)imidazo[1,2-b]-pyridazin-6-yl]oxy}ethyl)-2-hydroxyacetamide] | –
29 | – | – | 7.45 | 7.78 | CC(=O)N1CCC[C@H]1CCOc1ccc2ncc(-c3cc4cc(Cl)ccc4o3)n2n1 [Example I-31, 1-[(2S)-2-(2-{[3-(5-Chloro-1-benzofuran-2-yl)imidazo[1,2-b]pyridazin-6-yl]oxy}ethyl)pyrrolidin-1-yl]ethanone] | –

Row | Structure (SMILES) | pIC50 (MKNK1 [1]; Table 2c) | pIC50 (MKNK1 [2]; Table 1c) | pIC50 (MKNK1 [1]; Table 2a) | pIC50 (MKNK1 [2]; Table 1a) | further results
30 | CN1CCC(N(C)c2nccc3oc(-c4cnc5ccc(O[C@H]6C[C@H](N)C6)nn45)cc23)CC1 [III-100, 2-{6-[(trans-3-Aminocyclobutyl)oxy]imidazo[1,2-b]pyridazin-3-yl}-N-methyl-N-(1-methylpiperidin-4-yl)furo[3,2-c]pyridin-4-amine] | 7.34 | 8.24 | – | – | –
